What is called IC50 is the concentration at which inhibition is half-maximal.

Like-named read-outs stand apart in the source and are kept apart here.

Here are results for 19 compounds from US20130018033A1, “RAF INHIBITOR COMPOUNDS AND METHODS OF USE THEREOF” (ARRAY BIOPHARMA INC., priority 2009, published 2013).

Assay [1] addresses T1, V600E full-length B-Raf (Homo sapiens, UniProt P15056, V600E).
T1 construct: 1 μM FSBA-MEK and 20 nM V600E full-length B-Raf; made in house; host or cells: Sf9 insect cells (baculovirus)
Nature of the assay: B-Raf IC50 assay (Example A). It is filed as biochemical. The source says:
Determining the activity of Raf in the sample is possible by a number of direct and indirect detection methods (US 2004/0082014). Activity of human recombinant B-Raf protein may be assessed in vitro by assay of the incorporation of radio labeled phosphate to recombinant MAP kinase (MEK), a known physiologic substrate of B-Raf, according to US 2004/0127496 and WO 03/022840. The activity/inhibition of V600E full-length B-Raf was estimated by measuring the incorporation of radio labeled phosphate from [γ-^33P]ATP into FSBA-modified wild-type MEK (see Example A).
Activity of human recombinant B-Raf protein may be assessed in vitro by assay of the incorporation of radio labeled phosphate to recombinant MAP kinase (MEK), a known physiologic substrate of B-Raf, according to US 2004/0127496 and WO 03/022840. Catalytically active human recombinant B-Raf protein is obtained by purification from sf9 insect cells infected with a human B-Raf recombinant baculovirus expression vector.
The activity/inhibition of V600E full-length B-Raf was estimated by measuring the incorporation of radio labeled phosphate from [γ-^33P]ATP into FSBA-modified wild-type MEK. The 30-μL assay mixtures contained 25 mM Na Pipes, pH 7.2, 100 mM KCl, 10 mM MgCl2, 5 mM β-glycerophosphate, […], 4 μM ATP, 500 nCi [γ-^33P]ATP, 1 μM FSBA-MEK and 20 nM V600E full-length B-Raf. Incubations were carried out at 22° C. in a Costar 3365 plate (Corning). Prior to the assay, the B-Raf and FSBA-MEK were preincubated together in assay buffer at 1.5×(20 μL of 30 nM and 1.5 μM, respectively) for 15 minutes, and the assay was initiated by the addition of 10 μL of 10 μM ATP. Following the 60-minute incubation, the assay mixtures were quenched by the addition of 100 μL of 25% TCA, the plate was mixed on a rotary shaker for 1 minute, and the product was captured on a Perkin-Elmer GF/B filter plate using a Tomtec Mach III Harvester. After sealing the bottom of the plate, 35 μL of Bio-Safe II (Research Products International) scintillation cocktail were added to each well and the plate was top-sealed and counted in a Topcount NXT (Packard).

For assay [2], the system named is basal ERK1/2 phosphorylation in Malme-3M cells. As to the kind of experiment: Cellular ERK 1/2 phosphorylation assay (Example A1). Format: cell-based. As to conditions: Homo sapiens, 1 hour incubation, pERK normalized to total ERK, read-out: P-ERK Malme3-M IC50. On the procedure:
Inhibition of basal ERK1/2 phosphorylation was determined by the following in vitro […], which comprises incubating cells with a compound of Formula I for 1 hour and quantifying the fluorescent pERK signal on fixed cells and normalizing to total ERK signal.
Malme-3M cells were obtained from ATCC and grown in RPMI-1640 supplemented with 10% fetal bovine serum. Cells were plated in 96-well plates at 24,000 cells/well and allowed to attach for 16-20 hours at 37° C., 5% CO2. The media was removed, and DMSO-diluted compounds were added in RPMI-1640 at a final concentration of 1% DMSO. The cells were incubated with the compounds for 1 hour at 37° C., 5% CO2. The cells were washed with PBS and fixed in 3.7% formaldehyde in PBS for 15 minutes. This was followed by washing in PBS/0.05% Tween20 and permeabilizing in −20° C. 100% MeOH for 15 minutes. Cells were washed in PBS/0.05% Tween20 then blocked in Odyssey blocking buffer (LI-COR Biosciences) for 1 hour. Antibodies to phosphorylated ERK (1:400, Cell Signaling #9106, monoclonal) and total ERK (1:400, Santa Cruz Biotechnology #sc-94, polyclonal) were added to the cells and incubated 16-20 hours at 4° C. After washing with PBS/0.05% Tween20, the cells were incubated with fluorescently-labeled secondary antibodies (1:1000 goat anti-rabbit IgG-IRDye800, Rockland and 1:500 goat anti-mouse IgG-Alexa Fluor 680, Molecular Probes) for an additional hour. Cells were then washed and analyzed for fluorescence at both wavelengths using the Odyssey Infrared Imaging System (LI-COR Biosciences). Phosphorylated ERK signal was normalized to total ERK signal.

The mark [3] stands for this setting: B-Raf V600E assay of Example A, read-out: IC50.
The mark [4] stands for this setting: [γ-33P]ATP incorporation into FSBA-MEK, 4 μM ATP, read-out: BRAF V600E IC50.

T1 sequence (P15056 whole entry V600E): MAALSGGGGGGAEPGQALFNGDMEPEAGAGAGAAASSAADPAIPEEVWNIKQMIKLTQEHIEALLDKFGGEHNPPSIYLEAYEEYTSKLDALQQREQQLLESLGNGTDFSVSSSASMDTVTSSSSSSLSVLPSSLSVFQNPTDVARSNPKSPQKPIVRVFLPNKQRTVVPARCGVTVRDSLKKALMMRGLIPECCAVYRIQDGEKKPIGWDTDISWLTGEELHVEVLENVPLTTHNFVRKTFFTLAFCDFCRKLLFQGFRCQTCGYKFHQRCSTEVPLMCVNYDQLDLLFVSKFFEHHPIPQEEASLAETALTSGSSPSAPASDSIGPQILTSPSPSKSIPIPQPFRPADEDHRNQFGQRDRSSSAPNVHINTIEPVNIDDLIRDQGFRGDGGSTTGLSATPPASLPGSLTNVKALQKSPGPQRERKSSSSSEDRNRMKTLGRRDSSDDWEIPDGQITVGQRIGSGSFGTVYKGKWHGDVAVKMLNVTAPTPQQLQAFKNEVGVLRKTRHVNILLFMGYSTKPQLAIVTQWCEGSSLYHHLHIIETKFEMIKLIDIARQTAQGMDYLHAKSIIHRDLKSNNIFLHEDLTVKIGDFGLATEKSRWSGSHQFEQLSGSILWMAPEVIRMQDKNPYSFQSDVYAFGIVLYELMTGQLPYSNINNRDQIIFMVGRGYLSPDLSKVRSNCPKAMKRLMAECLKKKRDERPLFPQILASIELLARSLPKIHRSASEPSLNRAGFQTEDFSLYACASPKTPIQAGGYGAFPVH

As to `CCCS(=O)(=O)Nc1cccc(NC(=O)c2cccc3c(N)ncnc23)c1C#N` [Example 30, 4-Amino-quinazoline-8-carboxylic acid [2-cyano-3-(propane-1-sulfonylamino)-phenyl]-amide], the figures for the IC50 in assay [1] (setting [3]), in assay [1] (setting [4]) and in assay [2] were less than 100 nM, 0.08 nM and 7.1 nM, respectively.

On to `C#Cc1c(NS(=O)(=O)CCC)ccc(Cl)c1NC(=O)c1cccc2c(N)ncnc12` [Example 31, 4-Amino-quinazoline-8-carboxylic acid [6-chloro-2-ethynyl-3-(propane-1-sulfonylamino)-phenyl]-amide], for which the IC50 was less than 100 nM in assay [1] (setting [3]), 0.4 nM in assay [1] (setting [4]) and 42 nM in assay [2].

In the case of `Nc1ncnc2c(C(=O)Nc3c(F)ccc(NS(=O)(=O)c4ccccc4)c3F)cccc12` [Example 32, 4-Amino-quinazoline-8-carboxylic acid (3-benzenesulfonylamino-2,6-difluoro-phenyl)-amide], the IC50 in assay [1] (setting [3]) was less than 100 nM; in assay [1] (setting [4]) it was 0.38 nM; in assay [2], 17.7 nM.

For the compound `Nc1ncnc2c(C(=O)Nc3c(F)ccc(NS(=O)(=O)c4ccco4)c3F)cccc12` [Example 33, 4-Amino-quinazoline-8-carboxylic acid [2,6-difluoro-3-(furan-2-sulfonylamino)-phenyl]-amide], the IC50 in assay [1] (setting [3]) was less than 100 nM; in assay [1] (setting [4]), 0.17 nM; in assay [2], 12.5 nM.

For the compound `Nc1ncnc2c(C(=O)Nc3c(F)ccc(NS(=O)(=O)N4CCCC4)c3F)cccc12` [Example 34, 4-Amino-quinazoline-8-carboxylic acid [2,6-difluoro-3-(pyrrolidine-1-sulfonylamino)-phenyl]-amide], the IC50 in assay [1] (setting [3]) was less than 100 nM; in assay [1] (setting [4]) it was 12.7 nM; in assay [2], 15.6 nM.

On to `N#Cc1c(NS(=O)(=O)N2CCCC2)ccc(F)c1NC(=O)c1cccc2c(N)ncnc12` [Example 35, 4-Amino-quinazoline-8-carboxylic acid [2-cyano-6-fluoro-3-(pyrrolidine-1-sulfonylamino)-phenyl]-amide], for which the results for the IC50 in assay [1] (setting [3]), in assay [1] (setting [4]) and in assay [2] were less than 100 nM, 0.16 nM and 7.48 nM, respectively.

For the compound `CN(C)S(=O)(=O)Nc1ccc(F)c(NC(=O)c2cccc3c(N)ncnc23)c1F` [Example 36, 4-Amino-N-(3-(N,N-dimethylsulfamoylamino)-2,6-difluorophenyl)quinazoline-8-carboxamide], the IC50 in assay [1] (setting [3]) is less than 100 nM; in assay [1] (setting [4]), 14.8 nM; in assay [2], 25.2 nM.

With `CCN(C)S(=O)(=O)Nc1ccc(F)c(NC(=O)c2cccc3c(N)ncnc23)c1Cl` [Example 37, 4-Amino-N-(2-chloro-3-(N-ethyl-N-methylsulfamoylamino)-6-fluorophenyl)quinazoline-8-carboxamide], the values for the IC50 in assay [1] (setting [3]), in assay [1] (setting [4]) and in assay [2] were less than 100 nM, 21.5 nM and 39.7 nM, respectively.

Regarding `CN(C)S(=O)(=O)Nc1ccc(Cl)c(NC(=O)c2cccc3c(N)ncnc23)c1F` [Example 38, 4-Amino-N-(6-chloro-3-(N,N-dimethylsulfamoylamino)-2-fluorophenyl)quinazoline-8-carboxamide], the results for the IC50 in assay [1] (setting [3]), in assay [1] (setting [4]) and in assay [2] were less than 100 nM, 7.01 nM and 28 nM, respectively.

Turning to `CN(C)S(=O)(=O)Nc1ccc(F)c(NC(=O)c2cccc3c(N)ncnc23)c1Cl` [Example 39, 4-Amino-N-(2-chloro-3-(N,N-dimethylsulfamoylamino)-6-fluorophenyl)quinazoline-8-carboxamide], the IC50 in assay [1] (setting [3]) was less than 100 nM; in assay [1] (setting [4]), 7.5 nM; in assay [2], 32.7 nM.

Turning to `CCCS(=O)(=O)Nc1ccc(F)c(NC(=O)c2cc(C#CCO)cc3c(N)ncnc23)c1F` [Example 40, 4-Amino-6-(3-hydroxy-prop-1-ynyl)-quinazoline-8-carboxylic acid [2,6-difluoro-3-(propane-1-sulfonylamino)-phenyl]-amide], the results for the IC50 in assay [1] (setting [3]), in assay [1] (setting [4]) and in assay [2] were less than 100 nM, 2.2 nM and 158 nM, respectively.

Regarding `CCCS(=O)(=O)Nc1cc(F)c(F)c(NC(=O)c2cccc3c(NCCF)ncnc23)c1F` [Example 43, 4-(2-Fluoro-ethylamino)-quinazoline-8-carboxylic acid [2,3,6-trifluoro-5-(propane-1-sulfonylamino)-phenyl]-amide], the IC50 in assay [1] (setting [3]) was less than 1000 nM; in assay [1] (setting [4]), 293 nM; in assay [2], 2910 nM.

For `CCCS(=O)(=O)Nc1cc(F)c(F)c(NC(=O)c2cccc3c(NN4CCOCC4)ncnc23)c1F` [Example 47, 4-(Morpholin-4-ylamino)-quinazoline-8-carboxylic acid [2,3,6-trifluoro-5-(propane-1-sulfonylamino)-phenyl]-amide], the half-maximal inhibitory concentration (IC50) in assay [1] (setting [3]) was less than 1000 nM; in assay [1] (setting [4]), 105 nM; in assay [2], 1170 nM.

Regarding `O=C(Nc1c(F)c(F)cc(NS(=O)(=O)CCCF)c1F)c1cccc2c(NC3CC3)ncnc12` [Example 51, 4-(Cyclopropylamino)-N-(2,3,6-trifluoro-5-(3-fluoropropylsulfonamido)phenyl)quinazoline-8-carboxamide], the figures for the IC50 in assay [1] (setting [3]), in assay [1] (setting [4]) and in assay [2] were less than 1000 nM, 143 nM and 2310 nM, respectively.

Regarding `CCNc1ncnc2c(C(=O)Nc3c(F)c(F)cc(NS(=O)(=O)CCCF)c3F)cccc12` [Example 52, 4-Ethylamino-quinazoline-8-carboxylic acid [2,3,6-trifluoro-5-(3-fluoro-propane-1-sulfonylamino)-phenyl]-amide], the values for the IC50 in assay [1] (setting [3]), in assay [1] (setting [4]) and in assay [2] were less than 1000 nM, 290 nM and 5290 nM, respectively.

Regarding `CCCS(=O)(=O)Nc1ccc(F)c(NC(=O)c2cccc3cncnc23)c1F` [Example 54, Quinazoline-8-carboxylic acid [2,6-difluoro-3-(propane-1-sulfonylamino)-phenyl]amide], the figures for the concentration for half-maximal inhibition (IC50) in assay [1] (setting [3]), in assay [1] (setting [4]) and in assay [2] were less than 1000 nM, 119 nM and 526 nM, respectively.

Consider `O=C(Nc1c(F)ccc(NS(=O)(=O)CCCF)c1F)c1cccc2cncnc12` [Example 55, Quinazoline-8-carboxylic acid [2,6-difluoro-3-(3-fluoro-propane-1-sulfonylamino)-phenyl]-amide], for which the IC50 was less than 100 nM in assay [1] (setting [3]), 32.2 nM in assay [1] (setting [4]) and 92.8 nM in assay [2].

As for `O=C(Nc1c(F)ccc(NS(=O)(=O)CC2CC2)c1F)c1cccc2cncnc12` [Example 56, Quinazoline-8-carboxylic acid (3-cyclopropylmethane-sulfonylamino-2,6-difluoro-phenyl)-amide], the half-maximal inhibitory concentration (IC50) was less than 1000 nM in assay [1] (setting [3]), 204 nM in assay [1] (setting [4]) and 638 nM in assay [2].

On to `O=C(Nc1c(Cl)ccc(NS(=O)(=O)CCCF)c1Cl)c1cccc2cncnc12` [Example 57, Quinazoline-8-carboxylic acid [2,6-dichloro-3-(3-fluoro-propane-1-sulfonylamino)-phenyl]-amide], for which the concentration for half-maximal inhibition (IC50) is less than 100 nM in assay [1] (setting [3]), 0.96 nM in assay [1] (setting [4]) and 87.6 nM in assay [2].
